From US4292318A, “Product and method for combating swine dysentery” (priority 1979, dated 1981)
In brackets after ≈: the same amount, converted by molar mass.

Experiments:
[1] = Teratogenetic study, mouse; format: in vivo; details: 250 mg/kg/day oral, 3rd to 13th days
Protocol: (§1) In view of the favourable results on chronic toxicity, a teratogenic study was conducted with male and female mice and rats.
a. Animal Species: Mouse, Male and female mice housed together for 10
Oral treatment from 3rd day to 13th days.

[2] = Acute toxicity in the rabbit by esophageal administration; format: in vivo
Protocol: (§2) The compound was tested for acute toxicity by several modes of administration in four species, namely mice, rat, guinea pig, and rabbit. […] The results are given below in Tables 3, 4, 5 and 6.

[3] = Acute toxicity in the guinea pig by esophageal administration; format: in vivo
Protocol: as §2

[4] = test system: Treponema hyodysenteriae; experiment: In vitro test against Treponema hyodysenteriae (MIC, MBC); format: cell-based; details: Brachyspira hyodysenteriae, lowest concentration in a dilution series where growth is inhibited, read-out: minimum inhibitory concentration
Protocol: D was tested in vitro against Treponema hyodysenteriae by a known method. The minimum inhibitory concentration (the lowest concentration of compound in a dilution series where growth is inhibited) was 0.1 mcg/ml. The minimum bactericidal concentration (the lowest concentration of compound in which no viable treponemes are observed upon dilution and subculture from the broth onto blood agar plates) was greater than 0.1 mcg/ml but less than 1 mcg/ml.

[5] = test system: five strains of Vibrio cholerae; experiment: In vitro effect on five strains of Vibrio cholerae (summary)
[6] = Acute toxicity in female mice; format: in vivo
Protocol: as §2

[7] = Subacute toxicity in female rats; format: in vivo, rat; details: 2 g/kg/day by gastric lavage for 21 days
[8] = Teratogenic study with male and female mice and rats; format: in vivo
Protocol: as §1

[9] = Chronic toxicity in the female mouse; format: in vivo; details: for Dead/Treated / Body Weight in g (m ± SE) Start / Body Weight in g (m ± SE) Termination: gastric lavage, 18 weeks; for Fresh Organ-to-Body-Weight Ratio, Heart / Fresh Organ-to-Body-Weight Ratio, Kidneys / Fresh Organ-to-Body-Weight Ratio, Liver / Fresh Organ-to-Body-Weight Ratio, Lungs: m ± SE, 4 animals; for Blood Glucose / SGOT / SGPT: mean of 6 animals, 24 hours after last dose
Text: In view of the favourable sub-acute toxicity, the chronic toxicity in female mice was studied.

[10] = Acute toxicity in the rat; format: in vivo; details: for Dead/Treated within 21 days / Body weight (m ± SEM) in g. start / Body weight (m ± SEM) in g. Termination: First Experiment; for Body weight (m ± SEM) in g. Termination: Student's t test: t 0.05
Protocol: as §2

[11] = Teratogenetic study, rat; format: in vivo; details: 250 mg/kg/day oral, same conditions as mouse
Protocol: as §1
b. Animal Species. Rat. Same experimental conditions as with the mouse.

[12] = Acute toxicity by several modes of administration in four species; format: in vivo, and rabbit; details: mice, rat, guinea pig, rabbit
Protocol: as §2

[13] = Subacute toxicity in the mouse; format: in vivo; details: for SGOT / SGPT: 24 hrs. after last dose
Protocol: In view of the favourable acute toxicity data, the compound was administered orally in sub-acute, but relatively large, doses to mice and rats for 15 days. Data were collected on the effects on death rate, weight, liver, and kidneys.

[14] = General safety statement; details: statement in the description
[15] = Second Experiment, F, esophageal, 4000 mg/kg
[16] = Second Experiment, F, intraperitoneal, 500 mg/kg
[17] = Second Experiment, M, esophageal, 4000 mg/kg
[18] = Second Experiment, M, intraperitoneal, 500 mg/kg
[19] = 500 mg/kg/day by gastric lavage for 15 days
[20] = in adraganth gum, 1 g/kg/day for 15 days

Which results are given for `CCC(C)c1cnc(CC(C)C)c(=O)n1O` [D, D-aspergillic acid]?
Body Weight of Foetuses in g (m ± SE) [1]: 1.42 ± 0.05 g; No. of Foetuses with malformations [1]: 0; No. of living Foetuses per Delivery (m ± SE) [1]: 10.3 ± 0.6; Pregnant/Treated Animals [1]: 3/10; Dead/Treated within 7 days ([2]; 500 mg/kg): 0/2; Body Weight in g. start ([2]; 500 mg/kg, start): 2000 to 2100 g; Dead/Treated within 7 days ([2]; 1000 mg/kg): 0/4; Body Weight (m ± SE) in g. start ([2]; 1000 mg/kg, start): 2037 ± 104.3 g; Body Weight (m ± SE) in g. Termination ([2]; 1000 mg/kg, termination): 1922.5 ± 71.5 g; Dead/Treated within 7 days ([2]; 2000 mg/kg): 0/2; dead out of treated animals, within 4 days (footnote) ([2]; 2000 mg/kg, within 4 days): two dead out of seven treated animals; Dead/Treated within 21 days ([3]; 500 mg/kg): 0/4; Dead/Treated within 21 days ([3]; 1000 mg/kg): 1/4; Dead/Treated within 21 days ([3]; 2000 mg/kg): 5/6; Dead/Treated within 21 days ([3]; 4000 mg/kg): 6/6; MIC [4]: 0.1 µg/mL (≈ 0.446 µM); growth of 3 of the organisms ([5]; 10 mcg/ml, after 48 hours): no growth; growth of the remaining two organisms ([5]; 100 mcg/ml): only marginal growth; Dead/Treated Animals after 7 days ([6]; endoperitoneal, 250 mg/kg): 0/18; Dead/Treated Animals after 7 days ([6]; endoperitoneal, 500 mg/kg): 6/12; Dead/Treated Animals after 2 days ([6]; endoperitoneal, 1000 mg/kg, 2 days): 6/6; Dead/Treated Animals after 7 days ([6]; endoperitoneal, 1000 mg/kg): 6/6; Dead/Treated Animals after 1 day ([6]; endoperitoneal, 2000 mg/kg, 1 day): 6/6; Dead/Treated Animals after 7 days ([6]; endoperitoneal, 2000 mg/kg): 6/6; Dead/Treated Animals after 7 days ([6]; esophageal, 1000 mg/kg): 0/12; Dead/Treated Animals after 7 days ([6]; esophageal, 2000 mg/kg): 0/12; Dead/Treated Animals after 4 days ([6]; esophageal, 4000 mg/kg, 4 days): 1/12; Dead/Treated Animals after 7 days ([6]; esophageal, 4000 mg/kg): 1/12; Average Percent Weight of Fresh Organs, Kidneys ([7]; 5 animals, NS): 1.04 ± 0.03%; Average Percent Weight of Fresh Organs, Liver ([7]; 5 animals, NS): 4.54 ± 0.10%; Average Percent Weight of Fresh Organs, Lung ([7]; 5 animals, NS): 1.07 ± 0.09%; Body Weight in g (m ± SE) Start ([7]; start): 204.1 ± 2.0 g; Body Weight in g (m ± SE) Termination ([7]; termination): 210.6 ± 9.6 g; Dead/Treated ([7]; D, death caused by a mistake in esophagus incannulation): 1/6; number of young delivered live at birth [8]: comparable with controls; malformations ([8]; either group): No malformations; Urine Amount excreted by 6 animals in 6 hours ([9]; 250 mg/kg/day): 6.5 mL; Dead/Treated ([9]; 250 mg/kg/day): 0/10; Body Weight in g (m ± SE) Start ([9]; 250 mg/kg/day): 27.3 ± 0.5 g; Body Weight in g (m ± SE) Termination ([9]; 250 mg/kg/day): 26.7 ± 0.7 g; Fresh Organ-to-Body-Weight Ratio, Heart ([9]; 250 mg/kg/day): 0.60 ± 0.08; Fresh Organ-to-Body-Weight Ratio, Kidneys ([9]; 250 mg/kg/day): 0.87 ± 0.08; Fresh Organ-to-Body-Weight Ratio, Liver ([9]; 250 mg/kg/day): 4.57 ± 0.25; Fresh Organ-to-Body-Weight Ratio, Lungs ([9]; 250 mg/kg/day): 0.731 ± 0.035; Blood Glucose ([9]; 250 mg/kg/day): 1.10; SGOT ([9]; 250 mg/kg/day): 118 Units/ml; SGPT ([9]; 250 mg/kg/day): 5 Units/ml; Urine Amount excreted by 6 animals in 6 hours ([9]; 500 mg/kg/day): 7 mL; Dead/Treated ([9]; 500 mg/kg/day): 2/10; Body Weight in g (m ± SE) Start ([9]; 500 mg/kg/day): 30.4 ± 0.9 g; Body Weight in g (m ± SE) Termination ([9]; 500 mg/kg/day): 30.0 ± 0.7 g; Fresh Organ-to-Body-Weight Ratio, Heart ([9]; 500 mg/kg/day): 0.47 ± 0.02; Fresh Organ-to-Body-Weight Ratio, Kidneys ([9]; 500 mg/kg/day): 1.07 ± 0.04; Fresh Organ-to-Body-Weight Ratio, Liver ([9]; 500 mg/kg/day): 4.66 ± 0.91; Fresh Organ-to-Body-Weight Ratio, Lungs ([9]; 500 mg/kg/day): 1.011 ± 0.110; Blood Glucose ([9]; 500 mg/kg/day): 1.06; SGOT ([9]; 500 mg/kg/day): 159 Units/ml; SGPT ([9]; 500 mg/kg/day): 6 Units/ml; Dead/Treated within 7 days ([10]; Cumulative data regardless of sex, esophageal, 4000 mg/kg): 0/16; Dead/Treated within 7 days ([10]; Cumulative data regardless of sex, intraperitoneal, 500 mg/kg): 4/16; Dead/Treated within 21 days ([10]; F, endoperitoneal, 500 mg/kg): 2/4; Body weight (m ± SEM) in g. start ([10]; F, endoperitoneal, 500 mg/kg): 206.2 ± 8.7 g; Dead/Treated within 21 days ([10]; F, esophageal, 4000 mg/kg): 0/4; Body weight (m ± SEM) in g. start ([10]; F, esophageal, 4000 mg/kg): 201.2 ± 4.2 g; Body weight (m ± SEM) in g. Termination ([10]; F, esophageal, 4000 mg/kg): 238.2 ± 12.1 g; Dead/Treated within 21 days ([10]; M, endoperitoneal, 500 mg/kg): 1/4; Body weight (m ± SEM) in g. start ([10]; M, endoperitoneal, 500 mg/kg): 234.0 ± 6.2 g; Body weight (m ± SEM) in g. Termination ([10]; M, endoperitoneal, 500 mg/kg): 314.3 ± 10.3 g; Dead/Treated within 21 days ([10]; M, esophageal, 4000 mg/kg): 0/4; Body weight (m ± SEM) in g. start ([10]; M, esophageal, 4000 mg/kg): 234.5 ± 13.8 g; Body weight (m ± SEM) in g. Termination ([10]; M, esophageal, 4000 mg/kg): 288.7 ± 13.8 g; Dead/Treated within 7 days [10, 15]: 0/4; Body weight (±SE) in g. start [10, 15]: 252.0 ± 16.6 g; Body weight (±SE) in g. Termination [10, 15]: 253.5 ± 12.1 g; Dead/Treated within 7 days [10, 16]: 0/4; Body weight (±SE) in g. start [10, 16]: 232.5 ± 5.9 g; Body weight (±SE) in g. Termination [10, 16]: 218.2 ± 7.0 g; Dead/Treated within 7 days [10, 17]: 0/4; Body weight (±SE) in g. start [10, 17]: 222.5 ± 6.2 g; Body weight (±SE) in g. Termination [10, 17]: 231.7 ± 15.7 g; Dead/Treated within 7 days [10, 18]: 2/4; Body weight (±SE) in g. start [10, 18]: 226.2 ± 6.8 g; Body Weight of Foetuses in g (m ± SE) [11]: 7.08 ± 0.19 g; No. of Foetuses with malformations [11]: 0; No. of living Foetuses per Delivery (m ± SE) [11]: 10.8 ± 0.86; Pregnant/Treated Animals [11]: 7/10; acute toxicity [12]: low order of toxicity; % Body Weight Change [13, 19]: -8.1 ± 3.9%; Dead/Treated [13, 19]: 0/10; Fresh Organ-to-Body Weight Ratio, Kidneys [13, 19]: 1.5 ± 0.1; Fresh Organ-to-Body Weight Ratio, Liver [13, 19]: 5.9 ± 0.3; % Body Weight Change ([13]; in H2O, 1 g/kg/day for 15 days): 18.5 ± 0.75%; Dead/Treated ([13]; in H2O, 1 g/kg/day for 15 days): 2/12; % Body Weight Change [13, 20]: 16.27 ± 1.31%; Dead/Treated [13, 20]: 3/12; SGOT ([13]; in adraganth gum): 132 Units/ml; SGPT ([13]; in adraganth gum): 10 Units/ml; SGOT ([13]; in water): 124 Units/ml; SGPT ([13]; in water): 9 Units/ml; nitrogenic (so in the source) [14]: not nitrogenic
